These results are taken from patent publication US20260378560A1, “APPROACHES TO DESIGNING AND PERFORMING COMPRESSED BIOLOGICAL EXPERIMENTS AND SYSTEMS FOR IMPLEMENTING THE SAME” (EXVIVO LABS INC., priority 2023, published 2026).

For experiment [1], the system named is MOLT-4. Put plainly: Cell viability (CellTiter Glo), library of cancer drugs, individual or sample compression with randomized (alphabetical) pools, MOLT-4. Particulars: for DRS: MOLT-4, None (measured individually); for DRS from deconvolution: MOLT-4, Samples, 7 Pick 3 randomized (alphabetical) sample pools. The experiment is classed as cell-based. An outline of the steps: (§1)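 Cells cultured with each drug individually at 1 nM–10 μM; viability by ATP luminescence (CellTiter Glo) to build dose-response curves and DRS. Samples read singly or pooled alphabetically (each drug in 3 of 7 pools), with pooled DRS recovered by additivity-based SUM deconvolution.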
Background: Cellular ATP, detected with luciferase, serves as a proxy for viable cell number.

In experiment [2] the test system is MOLT-4. As to the kind of experiment: Cell viability (CellTiter Glo), compressed perturbation pools with informed pool design, MAX-based deconvolution, MOLT-4.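 As to DRS from MAX-based deconvolution: higher DRS means a larger drug effect.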 Particulars: for DRS: MOLT-4, None (measured individually), informed pool design table; for DRS from MAX-based deconvolution: MOLT-4, Samples, 7 Pick 3 informed perturbation pools; for DRS, MOLT-4, MAX: compressed perturbation pools, informed pool design, MAX-based deconvolution. An outline of the steps: (§2)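 Per-drug DRS recovered by MAX deconvolution, which assumes the strongest pool member masks the rest; after ranking, each drug in turn takes the DRS of the lowest-signal pool containing it, and leftovers score zero. Pools built from drug class and known toxic combinations; dose-response spans 1 nM to 10 μM, read by ATP-based luminescence.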

The test system of experiment [3] is REH. As to the kind of experiment: Cell viability (CellTiter Glo), compressed perturbation pools with informed pool design, SUM-based deconvolution, REH. Details: scale not given here. On the procedure:
(§3) Total cell viability was measured for each sample using an ATP-based luminescence assay (i.e., CellTiter Glo). Each cancer drug was then screened at multiple concentrations ranging from one nM to ten μM in order to generate a dose-response curve and calculate a DRS for each cancer cell line.
(§4) Each cancer drug was cultured with target cells individually. At the end of the screen, samples were either analyzed individually or compressed into pools for analysis. The library was compressed alphabetically into ten cohorts, each of which contained seven cancer drugs present in three out of the seven pools, as shown in Table VII. Said another way, the screening platform 210 generated a “7 pick 3” compressed library by assigning the cancer drugs among different pools. […] The library was also compressed into ten cohorts with pools designed based on information known about each cancer drug, as shown in Table VIII. After cell viability measurement and DRS calculation, the DRS of each cancer drug in the samples generated based on the pools were deconvoluted and compared to the DRS for each cancer drug measured individually.
(§5) In parallel to the exemplary sample compression screen covered in Table VII, perturbations were compressed into pools and then screened. The pools were designed using drug class as a feature with two compression rules (or simply “rules”). The first rule required that drugs from the same class be separated into different cohorts (i.e., mutually exclusive groups of pools). The second rule separated PI3K pathway inhibitors from MAPK pathway inhibitors, as inhibiting these pathways in parallel is known to be synergistic but has not been clinically effective due to dose-limiting toxicities. A benefit of compressing perturbations is the ability to measure additive, antagonistic, and synergistic effects between drugs in the same pool. However, these effects can negatively impact deconvolution of individual drug effects. Therefore, combinations of drugs for which evidence of clinical toxicity exists can be assigned to different pools in accordance with an informed pooling operation. As new preclinical or clinical evidence of toxic combinations becomes available, the rules implemented by the screening platform 210—and more specifically, its algorithm for compressing members of a library—can be updated accordingly.
(§6) In SUM-based deconvolution, an assumption of additivity is used to quantify the individual effects of each perturbation on each target. Additivity implies that each perturbation effect on each target is positively contributing to the overall effect measured for that pool. This is an accurate assumption for certain experiments, such as when targets or samples are compressed. When targets are pooled—or when samples containing different targets are pooled—the effect of each perturbation on each individual target is diluted. In other words, each perturbation has an isolated effect on a target in culture, and the sum total of the isolated effects are measured when pooled. Therefore, SUM-based deconvolution breaks down the sum total measured for a pool and assigns estimated fractional effects to each compressed perturbation or target in the pool. The screening platform 210 used SUM-based deconvolution for all target and sample compression experiments described above.
(§7) As mentioned above, SUM-based deconvolution uses the overlapping pool design to identify relative relationships and ranges for the individual effects of each perturbation. When the overlapping pool design is not sufficient to solve for the polynomials representing perturbation effects, an anchor perturbation can be identified by the screening platform 210 based on rank order and assigned an effect size of zero. The anchor perturbation may be the lowest ranked perturbation in the rank order. This then enables the screening platform 210 to solve for the polynomials for the remaining perturbations.

In experiment [4] the test system is REH. As to the kind of experiment: Cell viability (CellTiter Glo), compressed perturbation pools with informed pool design, MAX-based deconvolution, REH.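 As to DRS from MAX-based deconvolution: higher DRS means a larger drug effect.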 The conditions noted are these: REH; for DRS: None (measured individually), informed pool design table; for DRS from MAX-based deconvolution: Samples, 7 Pick 3 informed perturbation pools; for DRS, REH, MAX: compressed perturbation pools, informed pool design, MAX-based deconvolution. The method in brief: as §2

Experiment [5] concerns REH. As to the kind of experiment: Cell viability (CellTiter Glo), library of cancer drugs, individual or sample compression with randomized (alphabetical) pools, REH. The conditions noted are these: REH; for DRS: None (measured individually); for DRS from deconvolution: Samples, 7 Pick 3 randomized (alphabetical) sample pools. Type of experiment: cell-based. The method in brief:
as §1

Experiment [6] deals with MOLT-4. Put plainly: Cell viability (CellTiter Glo), compressed perturbation pools with informed pool design, SUM-based deconvolution, MOLT-4. Details: scale not given here. On the procedure:
as §3, §4, §5, §6, §7

Regarding `CC[C@H](Nc1ncnc2[nH]cnc12)c1nc2cccc(F)c2c(=O)n1-c1ccccc1` [Idelalisib], in the experiment with MOLT-4 [1], the DRS stood at 0.80 and the DRS from deconvolution worked out at 0.69. In the experiment on MOLT-4 [2], the DRS came to 0.00; the “DRS from MAX-based deconvolution” value is on record as 0.00; the “DRS, MOLT-4, MAX” value was 0.00. The “DRS, REH, SUM” value in the experiment with REH [3] came out at 0.00. In the experiment on REH [4], the DRS is 0.30; the “DRS from MAX-based deconvolution” value is reported as 0.74; the “DRS, REH, MAX” value came out at 0.00. Moreover, in the experiment with REH [5], the DRS is on record as 0.91 and the DRS from deconvolution worked out at 0.85. Besides, the “DRS, MOLT-4, SUM” value with MOLT-4 [6] worked out at 0.54.
Turning to `C#Cc1cccc(Nc2ncnc3cc(OCCOC)c(OCCOC)cc23)c1` [Erlotinib], in the experiment with MOLT-4 [1], the DRS is reported as 1.04 and the DRS from deconvolution is recorded as 0.96. For the same molecule, in the experiment with MOLT-4 [2], the DRS was determined as 0.68; the “DRS from MAX-based deconvolution” value is on record as 5.39; the “DRS, MOLT-4, MAX” value was 0.00. The “DRS, REH, SUM” value with REH [3] amounted to 1.67. In addition, in the experiment with REH [4], the DRS is recorded as 5.88; the “DRS from MAX-based deconvolution” value was found to be 7.06; the “DRS, REH, MAX” value is 0.00. Further, in the experiment with REH [5], the DRS was determined as 1.84 and the DRS from deconvolution was found to be 1.59. Moreover, the “DRS, MOLT-4, SUM” value with MOLT-4 [6] was 1.55.
For the molecule `CCN1CCN(Cc2ccc(Nc3ncc(F)c(-c4cc(F)c5nc(C)n(C(C)C)c5c4)n3)nc2)CC1` [Abemaciclib], in the experiment with MOLT-4 [1], the DRS is on record as 0.50 and the DRS from deconvolution worked out at 0.55. Besides, in the experiment with MOLT-4 [2], the DRS is recorded as 15.70; the “DRS from MAX-based deconvolution” value was determined as 17.03; the “DRS, MOLT-4, MAX” value was found to be 0.00. Also, the “DRS, REH, SUM” value in the experiment with REH [3] worked out at 2.69. Besides, in the experiment with REH [4], the DRS is 13.34; the “DRS from MAX-based deconvolution” value is recorded as 15.14; the “DRS, REH, MAX” value was 0.00. Besides, in the experiment on REH [5], the DRS is reported as 2.40 and the DRS from deconvolution is reported as 2.57. In the experiment on MOLT-4 [6], the “DRS, MOLT-4, SUM” value was determined as 1.08.
In the experiment with MOLT-4 [1], `CC(C)C[C@H](NC(=O)[C@H](Cc1ccccc1)NC(=O)c1cnccn1)B(O)O` [Bortezomib] displayed a DRS of 25.00 and a DRS from deconvolution of 25.41. Moreover, in the experiment with MOLT-4 [2] (MOLT, informed perturbation pools), the “top hit of cohort (deconvoluted effect size)” value was “top hit”. In the experiment on MOLT-4 [2], the DRS is recorded as 2.50; the “DRS from MAX-based deconvolution” value is listed as 2.76; the “DRS, MOLT-4, MAX” value stood at 28.24. The “DRS, REH, SUM” value in the experiment with REH [3] is reported as 22.86. For the same molecule, in the experiment on REH [4], the DRS is on record as 2.40; the “DRS from MAX-based deconvolution” value was 2.90; the “DRS, REH, MAX” value turned out to be 31.61. Further, in the experiment on REH [4] (informed perturbation pools), the “top hit of cohort (deconvoluted effect size)” value is on record as “top hit”. In the experiment on REH [5], this molecule showed a DRS of 27.70 and a DRS from deconvolution of 28.16. Also, in the experiment on MOLT-4 [6], the “DRS, MOLT-4, SUM” value is 23.95.
